This note sets out measurements from ChEMBL document CHEMBL1143891, “Synthesis of beta- and gamma-oxa isosteres of fosmidomycin and FR900098 as antimalarial candidates” (Bioorg Med Chem, 2008).

The nature of assay [1]: Inhibition of Escherichia coli DXR.
In assay [2] the test system is Plasmodium falciparum. In words: Antimalarial activity against Plasmodium falciparum 3D7 in infected human erythrocytes after 48 hrs. The assay is classed as functional, organism-based. The conditions noted are these: 3D7, 48 h.

With `CN(O)C(=O)OCCP(=O)(O)O`, the midpoint of inhibition in assay [1], the IC50, lay at 3000 nM.

Take `CN(O)C(=O)COCP(=O)(O)O`: the IC50 came to 72 nM in assay [1] and 240 nM in assay [2]. Take `CC(=O)N(O)COCP(=O)(O)O`: the IC50 in assay [1] came to 87 nM; in assay [2], 360 nM. For the compound `O=CN(O)COCP(=O)(O)O`, the IC50 came to 1110 nM in assay [1] and 4900 nM in assay [2]. The matching figures for `CN(O)C(=O)CCCP(=O)(O)O`: 97 nM and 980 nM. With `CC(=O)N(O)CCCP(=O)(O)O` [FR-900098], the IC50 is 62 nM in assay [1] and 430 nM in assay [2]. For the compound `O=C(COCP(=O)(O)O)NO`, the IC50 in assay [1] is over 3000 nM.

As for `CC(=O)N(O)CCCP(=O)(OCOC(=O)C(C)(C)C)OCOC(=O)C(C)(C)C`, the values for the IC50 in assay [1] and in assay [2] were over 30000 nM and 99 nM, respectively. Turning to `O=C(NO)OCCP(=O)(O)O`, the IC50 in assay [1] is over 3000 nM. Consider `CN(O)C(=O)COCP(=O)(OCOC(=O)C(C)(C)C)OCOC(=O)C(C)(C)C` [BIS(PIVALOYLOXYMETHYL)ESTER], for which the IC50 is over 30000 nM in assay [1] and 51 nM in assay [2]. The matching figures for `O=CN(O)CCCP(=O)(O)O` [FOSMIDOMYCIN]: 54 nM and 1200 nM.
